From patent US6440980B1, “Synergistic inhibition of viral replication by long-chain hydrocarbons and nucleoside analogs” (Avanir Pharmaceuticals, priority 1996, dated 2002)
Where two headings read alike, the source gives them in different places.

What was measured:
HSV-2 [1] = experiment: Topical treatment of HSV-2 in guinea pig model, number of vesicles (Example 9); type: in vivo, hairless guinea pigs; conditions: mean; for Number of Vesicles Day 2: 48 hr post-inoculation; for Number of Vesicles Day 3: 72 hr post-inoculation; for Number of Vesicles Day 4: 96 hr post-inoculation
Fetal Foreskin Cells = experiment: Cell viability by trypan blue exclusion, fetal foreskin cells; type: cell-based, human; conditions: for Fetal Foreskin Cells No. Viable: 9 mM n-docosanol in 1.4 mM surfactant (4:1 w:w), trypan blue exclusion; for Fetal Foreskin Cells % Control: 9 mM n-docosanol in 1.4 mM surfactant, control = media only
Procedure: Typical data are presented in Table 3, showing that the total number of viable Vero cells and foreskin fibroblasts was unchanged after 24 hr to 72 hr incubation with the aliphatic alcohol suspension.

all cell lines tested = experiment: Cytotoxicity in mammalian cell cultures; conditions: read-out: IC50 (cellular toxicity by chain length)
Source text: Three assays were used to quantitate the effects of aliphatic alcohols on cell survival and proliferation: 1) counting cells with a hemocytometer and determining the number of cells that exclude trypan blue; 2) measuring the incorporation of ^3H-thymidine into cellular DNA by adding ^3H-thymidine (from New England Nuclear) to the culture medium, lysing the cells with water and harvesting the DNA onto filter paper; and 3) measuring total cellular protein using a sulforhodamine assay adapted for use in 96-well microtiter plates (Skehan et al., J. Natl. Cancer Inst. […] All of these methods are well known cell viability and cytotoxicity assays.

[2] = system: Varicella Zoster Virus (VZV); experiment: VZV infectious center assay in MRC-5 cells; type: cell-based, human varicella zoster virus (Ellen strain); conditions: for IC per Culture × 10^−4: no ACV, medium only 35
Cytomegalovirus (CMV) = experiment: CMV infectious center assay in MRC-5 cells; type: cell-based, human cytomegalovirus (Towne strain)
vaccinia virus = experiment: microbe, parasite or virus in culture; type: cell-based, vaccinia virus (WR strain); conditions: cultures that lacked PFA; 15 mM n-docosanol
[3] = system: human foreskin fibroblasts; experiment: Cell proliferation (cytostasis), sulforhodamine staining; type: cell-based; conditions: 1,000 cells/well, 96-hours incubation
Procedure: The effects of n-docosanol and n-docosane suspensions on cell proliferation (cytostasis) were quantitated using the sulforhodamine staining assay on cultures of human foreskin fibroblasts incubated in 96-well plates.
Foreskin fibroblasts were plated with or without aliphatic alcohol suspensions or control surfactant suspensions at 1,000 cells/well (FIG. 6A and FIG. 7) or at 30,000 cells/well (FIG. 6B) in 96 well plates. After incubation for 72 hr or 96 hr at 37° C., cells were precipitated with trichloroacetic acid, stained with sulforhodamine and quantitated by measuring the OD540 in a microtiter plate reader.

HSV-2 [4] = experiment: Cutaneous HSV-2 model in hairless guinea pigs, combination cream (Example 15); type: in vivo
Vero cells = conditions: African green monkey, 9 mM
[5] = Inflammation or toxicity at treated skin sites (Example 15); conditions: 96 hours, alone or in combination
[6] = system: Early viral protein synthesis; conditions: Katz et al. 1991; cited from earlier work
[7] = male, hairless, guinea pig, in vivo, 2 day
B cell hybridoma (MBI-9) = experiment: 3H-thymidine incorporation into DNA of B cell hybridoma; type: cell-based, murine; conditions: Mus musculus, 48 hr incubation, read-out: IC50 estimated by extrapolation
HSV-1 = HSV-1 PFU production in Vero cell cultures; type: cell-based, HSV-1 (MacIntyre strain)
HSV-2 [8] = experiment: Inhibition of HSV-2 plaque formation in Vero cells
[9] = Human betaherpesvirus 5, MRC5, read-out: % Inhibition of infected cells
[10] = Human alphaherpesvirus 2, Vero, read-out: Percent Inhibition of Plaque Formation

In the case of `CCCCCCCCCCCCCCCCCCCCCCO` [n-docosanol], the “Number of Vesicles Day 2” value (HSV-2 [1]; 10% w/w cream topically 3X/day from 24 hr post-inoculation) is reported as 40, the “Number of Vesicles Day 3” value (HSV-2 [1]; 10% w/w cream topically 3X/day) is reported as 12 and the “Number of Vesicles Day 4” value (HSV-2 [1]; 10% w/w cream topically 3X/day) is reported as 3. For the same molecule, the “Number of Vesicles Day 2” value (HSV-2 [1]; 10% w/w cream topically 5X/day) was 43, the “Number of Vesicles Day 3” value (HSV-2 [1]; 10% w/w cream topically 5X/day) was 5 and the “Number of Vesicles Day 4” value (HSV-2 [1]; 10% w/w cream topically 5X/day) was 3. The “Fetal Foreskin Cells No. Viable” value (Fetal Foreskin Cells; 24 hr) was 2.41 × 10^5, the “Fetal Foreskin Cells No. Viable” value (Fetal Foreskin Cells; 48 hr) was 2.78 × 10^5 and the “Fetal Foreskin Cells No. Viable” value (Fetal Foreskin Cells; 72 hr) was 2.72 × 10^5. The “Fetal Foreskin Cells % Control” value (Fetal Foreskin Cells; 24 hr) was 131%, the “Fetal Foreskin Cells % Control” value (Fetal Foreskin Cells; 48 hr) was 118% and the “Fetal Foreskin Cells % Control” value (Fetal Foreskin Cells; 72 hr) was 118%. The IC50 (all cell lines tested) was greater than 15 mM, the EC50 ([2]; Human alphaherpesvirus 3, MRC5, MRC-5 cells, read-out: n-docosanol EC50 for inhibition of VZV replication) was roughly 10 mM and the inhibition at 3300 µM ([2]; Human alphaherpesvirus 3, MRC5, VZV, n-Docosanol 3.3 mM, read-out: % Inhibition of infected cells) was 40%. For the same molecule, the inhibition at 10000 µM ([2]; Human alphaherpesvirus 3, MRC5, VZV, n-Docosanol 10 mM, read-out: % Inhibition of infected cells) was 57%, the inhibition at 30000 µM ([2]; Human alphaherpesvirus 3, MRC5, VZV, n-Docosanol 30 mM, read-out: % Inhibition of infected cells) was 80% and the “IC per Culture × 10^−4” value ([2]; VZV, n-Docosanol 3.3 mM) was 21 × 10^−4. The “IC per Culture × 10^−4” value ([2]; VZV, n-Docosanol 10 mM) was 15 × 10^−4, the “IC per Culture × 10^−4” value ([2]; VZV, n-Docosanol 30 mM) was 7 × 10^−4 and the inhibition at 3300 µM (Cytomegalovirus (CMV); [9]) was 20%. It also gave an inhibition at 10000 µM (Cytomegalovirus (CMV); [9]) of 60%, an inhibition at 30000 µM (Cytomegalovirus (CMV); [9]) of 85% and an EC50 (Cytomegalovirus (CMV); Human betaherpesvirus 5, MRC5, read-out: n-docosanol EC50 for inhibition of CMV replication, MRC-5 cells) of roughly 10 mM. For the same molecule, the “inhibition of vaccinia virus replication (in words)” value (vaccinia virus) was “does not inhibit replication of vaccinia virus”, the “n-docosanol concentration that inhibited proliferation of cells” value [3] was “greater than 3 mM” and the “reduction of mean vesicle numbers” value (HSV-2 [4]; 96 hours post-HSV-2-inoculation, cream two times daily, untreated mean 27 vesicles) was 63%. The “mean AUC (mean number of vesicles times hours vesicles were observed)” value (HSV-2 [4]; cream two times daily, untreated 698) was 464 vesicle hours, the “inhibition of AUC” value (HSV-2 [4]; vs untreated AUC 698 vesicle hours) was 34% and the “Vero Cells % Control” value (Vero cells; 24 h) was 101%. For the same molecule, the “Vero Cells No. Viable” value (Vero cells; 24 h) was 7.48 × 10^5, the “Vero Cells % Control” value (Vero cells; 48 h) was 137% and the “Vero Cells No. Viable” value (Vero cells; 48 h) was 8.69 × 10^5. The “Vero Cells % Control” value (Vero cells; 72 h) was 120%, the “Vero Cells No. Viable” value (Vero cells; 72 h) was 8.61 × 10^5 and the “induced inflammation or toxicity” value [5] was “not detected”. For the same molecule, the “inhibition of early viral protein synthesis” value [6] was “more than 80%”, the “Irritation Score Day 2” value [7] was 0 and the IC50 (B cell hybridoma (MBI-9)) was roughly 20 mM. The “fewer HSV-1 PFU than untreated cultures” value (HSV-1; 15 mM n-docosanol alone, three days post-infection) was “about 10 fold”, the inhibition at 3300 µM (HSV-1; Human alphaherpesvirus 1, Vero, read-out: inhibition of PFU production) was 55% and the “fewer plaques than untreated or PLURONIC F-68-treated controls” value (HSV-2 [8]; 3 mM n-docosanol, without ACV) was 40%. The EC50 (HSV-2 [8]; Human alphaherpesvirus 2, Vero, read-out: 50% Inhibition Concentration (mM)) was 8.6 mM, the EC50 (HSV-2 [8]; Human alphaherpesvirus 2, Vero, read-out: EC50 of plaque formation inhibition, octoxynol (TRITON X-100) suspension) was roughly 4.5 mM and the inhibition at 1000 µM (HSV-2 [8]; [10]) was 14%. It also gave an inhibition at 2000 µM (HSV-2 [8]; [10]) of 40%, an inhibition at 4000 µM (HSV-2 [8]; [10]) of 36% and an inhibition at 8000 µM (HSV-2 [8]; [10]) of 44%. The inhibition at 15000 µM (HSV-2 [8]; [10]) was 66%, the EC50 (HSV-2 [8]; Human alphaherpesvirus 2, Vero, read-out: amount of n-docosanol required for 50% inhibition of plaque production, after increasing the ratio of surfactant to n-docosanol) was 3 mM and the EC50 (HSV-2 [8]; Human alphaherpesvirus 2, Vero, read-out: amount of n-docosanol required for 50% inhibition of plaque production, before increasing the ratio of surfactant to n-docosanol) was 15 mM. It also gave an EC50 (HSV-2 [8]; Human alphaherpesvirus 2, Vero, read-out: effective concentration required to inhibit plaque formation by 50% (EC50), surfactant suspension, Example 5) of 9 mM, an EC50 (HSV-2 [8]; Human alphaherpesvirus 2, Vero, read-out: n-docosanol EC50, HSV-2 plaque formation, in conjunction with ACV in the range of 0.2-10 μM) of 2 to 3 mM and an EC50 (HSV-2 [8]; Human alphaherpesvirus 2, Vero, read-out: n-docosanol EC50, HSV-2 plaque formation, used alone) of 2 to 3 mM. The “n-docosanol concentrations inhibiting plaque formation relative to octoxynol control” value (HSV-2 [8]; octoxynol (TRITON X-100) suspension) was “greater than or equal to 2 mM”.
